Experimental data: patent US10730771B2, “Method for operating reverse-osmosis membrane treatment system” (priority 2015, dated 2020)

Tested on: microorganisms adhered on the surfaces of test pieces
Test: Test example I: adhesion of slime (microorganisms, as ATP) to SUS316L test pieces in flow columns
Format: cell-based
Details: 13 days; for Amount of microorganisms adhered: 1.7 L/min, no treatment 121
Method: A test for confirming the capabilities of a combined-chlorine slime-control agent and a stabilized-bromine slime-control agent to reduce the adhesion of slime to the energy recovery device was conducted.
Water produced by treating wastewater from Kurita Global Technology Center of Kurita Water Industries Ltd. was used as test water.
In the testing apparatus, the test water fed from a pipe 20 is split into pipes 21, 22, and 23 and passed through columns 31, 32, and 33 provided with test pieces 31a, 32a, and 33a (3 cm×5 cm test pieces made of SUS316L) fixed to the respective inner walls. FI1, FI2, and FI3 represent a flow meter. V1, V2, and V3 represent a valve.
The test water was passed into the columns 31 to 33 through the branch pipes 21 to 23 at a flow rate of 1.7 L/min for 13 days. While the test water was passed through the testing apparatus, the chemical-1 was injected into the pipe 22 such that the total chlorine concentration measured by the DPD method produced by HACH was 1.0 mg/L (Test No. 2), and the chemical-2 was injected into the pipe 23 such that the total chlorine concentration measured by the same method as in Test No. 2 was 0.8 mg/L (Test No. 3). No chemical (no treatment) was added to the pipe 21 (Test No. 1).
After the test water had been passed through the testing apparatus for 13 days, the test pieces 31a to 33a were removed, and the microorganisms adhered on the surfaces thereof were sampled. The amount of microorganisms adhered on the surface of each of the test pieces was measured with a “Lumitester C-110” produced by Kikkoman Biochemifa Company. The amount of microorganisms was measured as ATP and expressed in the unit of pg/cm^2.

Compound	adhesion of microorganisms compared with no treatment (1.0 mg/L as total chlorine)	Amount of microorganisms adhered (Test No. 2, 1.0 mg/L as total chlorine)	adhesion of microorganisms compared with no treatment (0.8 mg/L as total chlorine)	Amount of microorganisms adhered (Test No. 3, 0.8 mg/L as total chlorine)
O=S(=O)([O-])NCl.[Na+] [NHClSO3Na, sodium monochlorosulfamate]	reduced the adhesion of microorganisms	49 ATP pg/cm^2	–	–
bromosulfamate [Chemical-2]	–	–	reduced the adhesion of microorganisms	72 ATP pg/cm^2
